Data on seven compounds can be found in patent US7109190B2, “Carbacephem β-lactam antibiotics” (Trine Pharmaceuticals, Inc., priority 2003, dated 2006).

Values after ≈ are worked out from the molar mass of the structure shown. Bounds are passed on as bounds.

The subject of one data set is MRSA COL. The data set can be described thus: In vitro MIC by agar dilution against MRSA COL. The format is cell-based. The conditions noted are these: Staphylococcus aureus; MRSA COL isolate; read-out: MIC (μg/mL) MRSA COL. The text has this: (§1) The in vitro MIC for bacterial isolates may be obtained in the following manner: a test compound is incorporated into a series of two-fold dilutions in liquified Mueller-hinton agar. Upon solidification, a number of different bacterial strains are spot-inoculated onto the surface of the agar. […] The procedures used in these experiments are generally those standardized by the National Committee for Clinical Laboratory Standards (NCCLS), as set forth in the NCCLS publication entitled “Methods for Dilution Antimicrobial Susceptibility Tests (1991), which is incorporated by reference as if fully set forth herein. The following exemplified such a procedure although it is to be understood that modifications of the procedure may be implemented as required.
(§2) Aliquots of the test compounds are prepared in phosphate buffered saline (PBS) at pH approximately 7.2. Tween 20 or dimethylsulfoxide (DMSO) are added if necessary to solubilize the compound and vortexing, sonicating and gentle heating may also be employed. Typically, the concentration of the stock solution is 10× that of the highest compound concentration to be used. Serial two-fold dilutions are prepared down to the lowest concentration to be tested. Each compound concentration is tested in duplicate. A control plate using a reference drug such as cefotaxime, vancomycin or imipenem is used as a postive control. A negative control plate containing no drug or compound is also prepared.
(§3) A few isolated colonies are retrieved from a pure culture prepared on agar plates and transferred to a tube of nutrient broth and allowed to grow at 35–36° C. until log-phase growth is achieved, usually about 4–6 hours. The broth is then added dropwise to PBS until the turbidity of the suspension matches a 0.5 McFarland standard which is equal to approximately 10^8 cfu/ml.
(§4) The test plates containing the compound dilutions and the control plates are then inoculated with the PBS suspension. The plates are then incubated for 16–20 hours at 35–36° C. The plates are then observed to determine which concentration of the test compound is the MIC.
(§5) It is expected that the compounds will be equally, if not more, potent against other resistant strains of bacteria as well as bacteria which are susceptible to current clinical antibiotics. The range of utility of the compounds herein can easily be established by those skilled in the art using the disclosures herein and all bacteria within the useful range are within the scope of this invention.
On the technique in general: In agar dilution the substance is mixed into plates at graded concentrations.

For another data set, the system named is MRSA 76. The data set can be described thus: In vitro MIC by agar dilution against MRSA 76. The format is cell-based. The settings on record: Staphylococcus aureus; MRSA 76 isolate; read-out: MIC (μg/mL) MRSA 76.
Text: as §1, §2, §3, §4, §5

In a further data set the test system is human serum. The data set can be described thus: Human serum binding (ultrafiltration, HPLC). The format is in vitro ADME. The protocol: The following procedure may be used to evaluate serum binding: compounds are incubated in serum for 10 min at 37° C. in a shaking water bath. Then a serum ultrafiltrate is obtained by centrifugation of ultra-filtration units (Amicon Centrifree) for, say, 20 minutes at 25° C. Compound content in the ultrafiltrate is quantified by HPLC using standards prepared in blank ultra-filtrate undergoing similar processing.
as §5

Another data set concerns MRSA. The conditions noted are these: MRSA potency, background prior-art compounds; cited from earlier work.
Another data set deals with serum protein. The settings on record: background prior-art compounds; cited from earlier work.

For the compound `Nc1nc(/C(=N/O)C(=O)NC2C(=O)N3C(C(=O)O)=C(Sc4nncs4)CCC23)c(Cl)s1` (stereo not drawn), the MIC in the data set with MRSA COL and in the data set on MRSA 76 was 2 µg/mL (≈ 3.98 µM) throughout. Moreover, the “Human Serum Binding” value in the data set with human serum worked out at 66.9%.

`Nc1nnc(SC2=C(C(=O)O)N3C(=O)C(NC(=O)/C(=N\O)c4nc(N)sc4Cl)C3CC2)s1` (stereo not drawn): the MIC in the data set with MRSA COL worked out at 1 µg/mL (≈ 1.93 µM); in the data set on MRSA 76 it was 2 µg/mL (≈ 3.87 µM). In addition, the “Human Serum Binding” value with human serum is 68.0%.

With `NCCSCc1cnccc1SC1=C(C(=O)O)N2C(=O)C(NC(=O)/C(=N\O)c3nc(N)sc3Cl)C2CC1` (stereo not drawn), the MIC in the data set with MRSA COL and in the data set on MRSA 76 was 1 µg/mL (≈ 1.71 µM) throughout. The “Human Serum Binding” value with human serum is on record as 74.5%.

For the compound `NCCSCc1ncccc1SC1=C(C(=O)O)N2C(=O)C(NC(=O)/C(=N\O)c3nc(N)sc3Cl)C2CC1` (stereo not drawn), the MIC in the data set on MRSA COL came to 1 µg/mL (≈ 1.71 µM); in the data set on MRSA 76, 2 µg/mL (≈ 3.42 µM). The “Human Serum Binding” value in the data set with human serum was 89.4%.

Regarding `Nc1nc(/C(=N/OCCF)C(=O)N[C@@H]2C(=O)N3C(C(=O)O)=C(Sc4nncs4)CCC23)cs1` (stereo partly drawn) [compound (2)], the MIC with MRSA is 2 µg/mL (≈ 3.89 µM). Also, the serum binding with serum protein is over 99.2%.

On to `Nc1nc(/C(=N/OCCF)C(=O)N[C@@H]2C(=O)N3C(C(=O)O)=C(Sc4nc5ccc([N+](=O)[O-])cc5s4)CCC23)cs1` (stereo partly drawn) [compound (3)], for which the MIC in the data set on MRSA is 4 µg/mL (≈ 6.58 µM). For the same compound, in the data set with serum protein, the serum binding is on record as 99.6%.

In the case of `Nc1nc(/C(=N/OCCF)C(=O)N[C@@H]2C(=O)N3C(C(=O)O)=C(Sc4nc5cnccc5s4)CCC23)cs1` (stereo partly drawn) [compound (4)], the MIC in the data set with MRSA was 64 µg/mL (≈ 114 µM). The serum binding in the data set on serum protein is recorded as 36%.
